Assay results from US6372797B1, “Treatment of menstrual function” (Knoll Pharmaceutical Company, priority 1999, dated 2002).

Tests used:
[3H]Dopamine reuptake = in vitro [3H]dopamine reuptake inhibition in rat brain tissue; assay type: biochemical; conditions: means of ≧ 3 separate determinations
[1] = target: [3H]Noradenaline reuptake; assay: in vitro [3H]noradrenaline reuptake inhibition in rat brain tissue; assay type: biochemical; conditions: means of ≧ 3 separate determinations

Row | SMILES | Ki ([3H]Dopamine reuptake) [nM] | Ki [1] [nM]
1 | CC(NC(C)(C)C)C(=O)c1cccc(Cl)c1 (stereo not shown) [Bupropion] | 409 | 2590
2 | COc1ccc(C(CN(C)C)C2(O)CCCCC2)cc1 (stereo not shown) [Venlafaxine] | 2590 | 196
